Values belong to the molecule of their own block, whether it stands above or below them.
Legend:
[1] = cited from earlier work
[2] = system: acute hepatic ischemia-reperfusion injury; parameters: method as in PMID 20444253, PMID 21270767; details: rats; serum AST/ALT, liver histology score; cited from earlier work
[3] = human plasma; cited from earlier work
[4] = logP by flask-shaking method (n-octanol/water, UV-vis); assay type: physicochemical; details: for logP: oil-water partition coefficient, n-octanol/water, by UV-vis
Method: To identify the structural features of CO-RMs that govern the CO releasing behaviour, the CO release kinetics of 4–15 were correlated to the corresponding M-CO band and lipophilicity in Table 2. Firstly, the oil-water partition coefficient logP values of complexes were measured by the “flask-shaking” method with n-octanol and water, respectively. […] The water-solubility of these sawhorse ruthenium complexes mainly depend on both the axial glycol amino esters and bridging carboxylate, respectively. […]
4. Water-solubility Measured by the ﬂask - shaking method
The lipophilicity of complexes was measured by the ﬂask- shaking method where n-octanol and ultrapure water were used as the organic and aqueous phase respectively. First, make the pre saturated of oil-water two phase. Then the tested complex was dissolved in the isolated organic phase at a concentration of 1mg/mL, take 2 mL of liquld and 8mL aqueous phase was joined, the mixture was swirled for 12h at room temperature. The solution was then centrifuged, and the amounts of complex in organic layers were determined by UV-vis. Drawing standard curve and determination of oil-water partition coefficient. […]
5.4 UV-vis spectra of Lipophilicity (log Po/w)
Table S3. Stand curve measurement and calculation of Log P
Entry Standard curve equation Correlation coefficient(R2) […]

[5] = system: myoglobin (lyophilised horse heart); experiment: Photo-activated CO release, myoglobin assay; details: CO release half-life, 60 µM CO-RM, LED-UV 365 nm, PBS pH 7.4
Method: The CO release activity of each CO-RM […] was measured with the “golden standard” of myoglobin assay. Firstly, sodium dithionite was added to reduce myoglobin to deoxy-myoglobin (deoxyMb) in PBS (pH = 7.4) at 37.8 °C. A stock solution of CO-RM was added and then activated by LED-UV radiation at 365 nm, releasing CO […]. The change of deoxyMb to carbonmonoxy-myoglobin (MbCO) was monitored by UV-vis spectroscopy. […] The half-lives of CO release rate of 4 at 60 µM is 166 s, 40 µM is 172 s, and 20 µM is 267 s. […]
3. CO-Release Measured by Standard Myoglobin Assay
The release of CO from the metal carbonyl compounds was studied by measuring the conversion of deoxy-myoglobin (deoxy-Mb) to carboxy-myoglobin (Mb-CO). The amount of Mb-CO formed was quantified by measuring the absorbance at 540 nm. […] A 2 mL quantity of this was measured to obtain a deoxy-Mb spectrum and then bubbled with CO to get a Mb-CO spectrum. […] The concentration of myoglobin in the stock solution was calculated from the maximal absorption peak of the Mb-CO solution at 540 nm (Equation 1).
Equation 1. Equation for calculating total myoglobin concentration in a saturated solution of Mb-CO; ε = extinction coefficient of Mb-CO=15.4 mM-1cm-1, OD540 = absorbance of Mb-CO solution […]
Intermediate concentrations of Mb-CO are calculated from the OD540. […] The new extinction coefficient was calculated (Equation 2). […]

Molecule: [C-]#[O+].[C-]#[O+].[C-]#[O+].[C-]#[O+].[C-]#[O+].[C-]#[O+].[Cl][Ru][Cl].[Cl][Ru][Cl] [CO-RM-02, [Ru(CO)3Cl2]2]
solubility in aqueous systems [1]: poor solubility
effect on acute hepatic ischemia-reperfusion injury [2]: attenuated acute hepatic ischemia-reperfusion injury in rats

Molecule: NCC(=O)O.[C-]#[O+].[C-]#[O+].[C-]#[O+].[Cl][Ru] [CO-RM-03, [Ru(CO)3Cl(glycinate)]]
half-life of CO release [3]: 3.6 min

logP [4]: too hydrophobic to be evaluated
Molecule: [Ru2(CO)4(µ2-ŋ2-O2C-C14H9)2 (ŋ1-NH2CH2C(=O)OCH2CH2OCH3)2] [CO-RM 15]

Coctanol ([4]; concentration in n-octanol phase, UV-vis): 0.9201 mmol/L
Cwater ([4]; concentration in water phase): 0.05055 mmol/L
logP [4]: 1.26
t1/2, 60 µM [5]: 966 s
Molecule: [Ru2(CO)4(µ2-ŋ2-O2C-p-ClC6H5)2 (ŋ1-NH2CH2C(=O)OCH2CH2OCH3)2] [CO-RM 13]
